Reference: patent US12157730B2, “Heteroaryl derivative, method for producing same, and pharmaceutical composition comprising same as effective component” (VORONOI INC., priority 2019, dated 2024)

Biological target: T1, Ba/F3 cell EGFR Exon20 ins NPH (Homo sapiens, UniProt P00533, INS773NPH)
T1 construct: expressed in transfected cells; host or cells: Ba/F3
Assay: Ba/F3 cell proliferation suppression, EGFR Exon20 ins NPH
Assay type: cell-based
Conditions: GI50 class; Ba/F3 cell line with NPH inserted at Exon20 of EGFR; 72 hours
Outline: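 After 72 h compound exposure (twelve 3-fold steps, 0.3 nM–50 um final), live cells were measured by CellTiter-Glo luminescence and growth expressed as % of control to derive GI50. Cells were seeded at 3000–5000 per well a day earlier; Ba/F3 medium contained IL-3; three repeats.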

Row | SMILES | Ba/F3 (NPH) Activity
1 | C=CC(=O)Nc1cc(Nc2cc(N3OCC[C@@H]3c3cc(F)cc(F)c3)ncn2)c(OC)cc1N1C[C@@H]2C[C@H]1CO2 [compound 437, N-(2-((1S,4S)-2-oxa-5-azabicyclo [2.2.1]heptane-5-yl)-5-((6-((R)-3-(3,5-difluorophenyl)isoxazolidine-2-yl)pyrimidine-4-yl)amino)-4-methoxyphenyl) acrylamide] | B (50 nM ≤ GI50 < 500 nM)
2 | C=CC(=O)Nc1cc(Nc2cc(N3OCC[C@@H]3c3ccc(C)nc3)ncn2)c(OC)cc1N(C)CCOC [Example 223, N-(4-methoxy-2-((2-methoxyethyl) (methyl)amino)-5-((6-((R)-3-(6-methylpyridine-3-yl)isoxazolidine-2-yl)pyrimidine-4-yl)amino)phenyl)acrylamide] | B (50 nM ≤ GI50 < 500 nM)
3 | C=CC(=O)Nc1cc(Nc2cc(N3OCC[C@@H]3c3cccc(C#N)c3)ncn2)c(OC)cc1N1CCC(N2CC3CCC(C2)N3C2CC2)CC1 [Example 133, N-(5-((6-((R)-3-(3-cyanophenyl)isoxazolidine-2-yl)pyrimidine-4-yl)amino)-2-(4-(8-cyclopropyl-3,8-diazabicyclo[3.2.1]octan-3-yl)piperidine-1-yl)-4-methoxyphenyl) acrylamide] | B (50 nM ≤ GI50 < 500 nM)
4 | C=CC(=O)Nc1cc(Nc2cc(N3OCC[C@@H]3c3cc(F)ccc3F)ncn2)c(OC)cc1N1CCC(N2CCC3(CC2)CC3)CC1 [compound 828, N-(2-(4-(6-azaspiro[2.5]octan-6-yl)piperidine-1-yl)-5-((6-((R)-3-(2,5-difluorophenyl)isoxazolidine-2-yl)pyrimidine-4-yl)amino)-4-methoxyphenyl) acrylamide] | A (GI50 < 50 nM)
5 | C=CC(=O)Nc1cc(Nc2cc(N3OCC[C@@H]3c3cc(F)cc(F)c3)ncn2)c(OC)cc1N1CCC(N2C[C@@H](C)N(CC)[C@@H](C)C2)CC1 [compound 827, N-(5-((6-((R)-3-(3,5-difluorophenyl)isoxazolidine-2-yl)pyrimidine-4-yl)amino)-2-(4-((3S,5R)-4-ethyl-3,5-dimethylpiperazine-1-yl)piperidine-1-yl)-4-methoxyphenyl) acrylamide] | A (GI50 < 50 nM)
6 | C=CC(=O)Nc1cc(Nc2cc(N3OCC[C@@H]3c3cc(F)ccc3F)ncn2)c(OC)cc1N1CCC(N2CCN(C)[C@H](C)C2)CC1 [compound 851, N-(5-((6-((R)-3-(2,5-difluorophenyl)isoxazolidine-2-yl)pyrimidine-4-yl)amino)-2-(4-((R)-3,4-dimethylpiperazine-1-yl)piperidine-1-yl)-4-methoxyphenyl) acrylamide] | A (GI50 < 50 nM)
7 | C=CC(=O)Nc1cc(Nc2cc(N3OCC[C@@H]3c3cccc(Cl)c3F)ncn2)c(OC)cc1N1CCC(N2CCN(C3CC3)[C@@H](C)C2)CC1 [Example 179, N-(5-((6-((R)-3-(3-chloro-2-fluorophenyl)isoxazolidine-2-yl)pyrimidine-4-yl)amino)-2-(4-((S)-4-cyclopropyl-3-methylpiperazine-1-yl)piperidine-1-yl)-4-methoxyphenyl) acrylamide] | A (GI50 < 50 nM)
8 | C=CC(=O)Nc1cc(Nc2cc(N3OCC[C@@H]3Cc3cccc(F)c3)ncn2)c(OC)cc1N1CCC(N2C[C@H]3CC[C@@H](C2)N3C2CC2)CC1 [compound 995, N-(2-(4-((1R,5S)-8-cyclopropyl-3,8-diazabicyclo [3.2.1]octan-3-yl)piperidine-1-yl)-5-((6-((S)-3-(3-fluorobenzyl)isoxazolidine-2-yl)pyrimidine-4-yl)amino)-4-methoxyphenyl) acrylamide] | A (GI50 < 50 nM)
9 | C=CC(=O)Nc1cc(Nc2cc(N3OCC[C@@H]3c3ccc(F)c(F)c3F)ncn2)c(OC)cc1N1CCC(N(C)C)CC1 [compound 573, N-(2-(4-(dimethylamino)piperidine-1-yl)-4-methoxy-5-((6-((R)-3-(2,3,4-trifluorophenyl)isoxazolidine-2-yl)pyrimidine-4-yl)amino)phenyl)acrylamide] | A (GI50 < 50 nM)
10 | C=CC(=O)Nc1cc(Nc2cc(N3OCC[C@@H]3c3c(F)ccc(F)c3F)ncn2)c(OC)cc1N1CCC(N2C[C@@H]3C[C@H]2CO3)CC1 [compound 642, N-(2-(4-((1S,4S)-2-oxa-5-azabicyclo[2.2.1]heptane-5-yl)piperidine-1-yl)-4-methoxy-5-((6-((R)-3-(2,3,6-trifluorophenyl)isoxazolidine-2-yl)pyrimidine-4-yl)amino)phenyl)acrylamide] | A (GI50 < 50 nM)
11 | C=CC(=O)Nc1cc(Nc2cc(N3OCC[C@@H]3Cc3cccc(Cl)c3Cl)ncn2)c(OC)cc1N1CCC(N2CCN(C(C)C)CC2)CC1 [compound 1015, N-(5-((6-((S)-3-(2,3-dichlorobenzyl)isoxazolidine-2-yl)pyrimidine-4-yl)amino)-2-(4-(4-isopropylpiperazine-1-yl)piperidine-1-yl)-4-methoxyphenyl) acrylamide] | A (GI50 < 50 nM)
12 | C=CC(=O)Nc1cc(Nc2cc(N3OCC[C@@H]3c3cccc(F)c3F)ncn2)c(OC)cc1N1CCN(C)[C@@H](C)C1 [compound 883, N-(5-((6-((R)-3-(2,3-difluorophenyl)isoxazolidine-2-yl)pyrimidine-4-yl)amino)-2-((S)-3,4-dimethylpiperazine-1-yl)-4-methoxyphenyl) acrylamide] | A (GI50 < 50 nM)
13 | C=CC(=O)Nc1cc(Nc2cc(N3OCC[C@@H]3c3ccc(Cl)c(Cl)c3)ncn2)c(OC)cc1N1C[C@@H]2C[C@H]1CN2CC [compound 678, N-(5-((6-((R)-3-(3,4-dichlorophenyl)isoxazolidine-2-yl)pyrimidine-4-yl)amino)-2-((1S,4S)-5-ethyl-2,5-diazabicyclo[2.2.1]heptane-2-yl)-4-methoxyphenyl) acrylamide] | A (GI50 < 50 nM)
14 | C=CC(=O)Nc1cc(Nc2cc(N3OCC[C@@H]3c3cc(F)cc(Cl)c3)ncn2)c(OC)cc1N1CCC(N2CCN(C3CCC3)CC2)CC1 [Example 189, N-(5-((6-((R)-3-(3-chloro-5-fluorophenyl)isoxazolidine-2-yl)pyrimidine-4-yl)amino)-2-(4-(4-cyclobutylpiperazine-1-yl)piperidine-1-yl)-4-methoxyphenyl) acrylamide] | A (GI50 < 50 nM)
15 | C=CC(=O)Nc1cc(Nc2cc(N3OCC[C@@H]3c3cccc(F)c3F)ncn2)c(OC)cc1N(C)CCN(C)C [compound 924, N-(5-((6-((R)-3-(2,3-difluorophenyl)isoxazolidine-2-yl)pyrimidine-4-yl)amino)-2-((2-(dimethylamino)ethyl)(methyl)amino)-4-methoxyphenyl) acrylamide] | A (GI50 < 50 nM)
16 | C=CC(=O)Nc1cc(Nc2cc(N3OCC[C@@H]3c3cc(F)ccc3F)ncn2)c(OC)cc1N1CCOCC1 [compound 825, N-(5-((6-((R)-3-(2,5-difluorophenyl)isoxazolidine-2-yl)pyrimidine-4-yl)amino)-4-methoxy-2-morpholinophenyl) acrylamide] | A (GI50 < 50 nM)

The remaining lines, values ahead:

Row | Ba/F3 (NPH) Activity | SMILES
17 | B (50 nM ≤ GI50 < 500 nM) | C=CC(=O)Nc1cc(Nc2cc(N3OCC[C@@H]3c3cc(F)cc(F)c3)ncn2)c(OC)cc1N1CCN(C2COC2)CC1 [Example 273, N-(5-((6-((R)-3-(3,5-difluorophenyl)isoxazolidine-2-yl)pyrimidine-4-yl)amino)-4-methoxy-2-(4-(oxetane-3-yl)piperazine-1-yl)phenyl)acrylamide]
18 | A (GI50 < 50 nM) | C=CC(=O)Nc1cc(Nc2cc(N3OCC[C@@H]3c3ccc(F)c(Cl)c3)ncn2)c(OC)cc1N1CCC(N2CCN(C)[C@H](C)C2)CC1 [compound 901, N-(5-((6-((R)-3-(3-chloro-4-fluorophenyl)isoxazolidine-2-yl)pyrimidine-4-yl)amino)-2-(4-((R)-3,4-dimethylpiperazine-1-yl)piperidine-1-yl)-4-methoxyphenyl) acrylamide]
19 | A (GI50 < 50 nM) | C=CC(=O)Nc1cc(Nc2cc(N3OCC[C@@H]3c3ccc(Cl)cc3)ncn2)c(OC)cc1N1CCC(N2CCOCC2)CC1 [compound 782, N-(5-((6-((R)-3-(4-chlorophenyl)isoxazolidine-2-yl)pyrimidine-4-yl)amino)-4-methoxy-2-(4-morpholinopiperidine-1-yl)phenyl)acrylamide]
20 | A (GI50 < 50 nM) | C=CC(=O)Nc1cc(Nc2cc(N3OCC[C@@H]3c3ccc(F)c(F)c3)ncn2)c(OC)cc1N1CCN(C)CC1 [compound 458, N-(5-((6-((R)-3-(3,4-difluorophenyl)isoxazolidine-2-yl)pyrimidine-4-yl)amino)-4-methoxy-2-(4-methylpiperazine-1-yl)phenyl)acrylamide]
21 | A (GI50 < 50 nM) | C=CC(=O)Nc1cc(Nc2cc(N3OCC[C@@H]3c3ccc(Cl)cc3F)ncn2)c(OC)cc1N1CCN(CC)CC1 [compound 401, N-(5-((6-((R)-3-(4-chloro-2-fluorophenyl)isoxazolidine-2-yl)pyrimidine-4-yl)amino)-2-(4-ethylpiperazine-1-yl)-4-methoxyphenyl) acrylamide]
22 | A (GI50 < 50 nM) | C=CC(=O)Nc1cc(Nc2cc(N3OCC[C@@H]3c3ccc(Cl)c(F)c3)ncn2)c(OC)cc1N1CCN(C2CC2)CC1 [compound 364, N-(5-((6-((R)-3-(4-chloro-3-fluorophenyl)isoxazolidine-2-yl)pyrimidine-4-yl)amino)-2-(4-cyclopropylpiperazine-1-yl)-4-methoxyphenyl) acrylamide]
23 | B (50 nM ≤ GI50 < 500 nM) | C=CC(=O)Nc1cc(Nc2cc(N3OCC[C@@H]3c3cccc(Cl)c3)ncn2)c(OC)cc1N1CCN(C2CC2)CC1 [compound 463, N-(5-((6-((R)-3-(3-chlorophenyl)isoxazolidine-2-yl)pyrimidine-4-yl)amino)-2-(4-cyclopropylpiperazine-1-yl)-4-methoxyphenyl) acrylamide]
